Measured values published in patent publication US12496327B2, “Methods and compositions for restoring STMN2 levels” (President and Fellows of Harvard College, priority 2019, dated 2025).
Where a SMILES comes first, the peptide text is derived from it. The star is where a group is joined. Cbz = O=C(OCc1ccccc1)*

What was measured:
STMN2 cryptic exon = experiment: RT-PCR detection of STMN2 cryptic exon in hMNs; assay type: cell-based, human; conditions: hMNs treated with proteasome inhibitor
Description: TDP-43 plays an important role in the nucleus regulating RNA splicing, and recent studies highlight its ability to suppress non-conserved or cryptic exons to maintain intron integrity (80). When cryptic exons are included in RNA transcripts, in many cases, their inclusion can affect normal levels of the gene product by disrupting its translation or by promoting nonsense-mediated decay (80). […] The sequencing data was examined for evidence of cryptic exons in genes observed to be reproducibly regulated by TDP-43 in human cancer cells (81). […] To accomplish this goal, an RT-PCR assay was developed to detect transcripts containing the cryptic exon (FIG. 5F). […] Total RNA was isolated from neurons using RNeasy Mini Kit (Qiagen) according to manufacturer's instructions. A total of 300-1000 ng of total RNA was used to synthesize cDNA by reverse transcription according to the iSCRIPT kit (Bio-rad). RT-PCR was then performed using one cryptic exon-specific primer and then analyzed using the Agilent 2200 Tapestation.

proteasome = experiment: Proteasome activity assay (luciferase substrate) in neurons treated with MG-132; assay type: cell-based, human
Description: (§1) N=6 separate wells of neurons. (Unpaired t test, P value <0.05). […] N=triplicate wells. Cells are viable after 1 day of treatment at all the concentrations tested and lower concentrations are tolerated for more extended periods of time. […] N=4 separate wells of neurons (Unpaired t test, P value <0.05).
(§2) A previous study established that proteasome inhibition in hMNs could trigger accumulation of mutant SOD-1 (31). It was, therefore, examined whether MG-132-mediated proteasome inhibition affected TDP-43 localization in hMNs as a potential model of sporadic ALS. First, the range and timing of small molecule treatment that could inhibit the proteasome without inducing overt cellular toxicity was established (FIGS. 14A-14D). […] Then a pulse-chase experiment was performed to determine the consequences of proteasome inhibition on TDP-43 localization (FIG. 5A). […] Thus, proteasome inhibition in hMNs induces a TDP-43 mislocalization that is reversible.

motor neurons = experiment: Cell Titer Glo neuronal survival assay; assay type: cell-based, human
Description: as §1, §2

TDP-43 [1] = experiment: TDP-43 localization by immunostaining, Pearson's correlation with DAPI; assay type: cell-based, human
Method: as §2
For immunofluorescence, cells were fixed with ice-cold 4% PFA for 15 minutes at 4° C., permeabilized with 0.2% Triton-X in 1×PBS for 45 minutes and blocked with 10% donkey serum in 1×PBS-T (0.1% Tween-20) for 1 hour. Cells were then incubated overnight at 4° C. with primary antibody (diluted in blocking solution). At least 4 washes (5 min incubation each) with 1×PBS-T were carried out, before incubating the cells with secondary antibodies for 1 hour at room temperature (diluted in blocking solution). Nuclei were stained with DAPI. […] Micrographs were analyzed using FIJI software to determine the correlation coefficient.

TDP-43 [2] = experiment: Immunoblot of TDP-43 in detergent-soluble (RIPA) and detergent-insoluble (UREA) fractions; assay type: cell-based, human
Method: To determine what happened to TDP-43 after proteasome inhibition, TDP-43 levels were examined by immunoblot analysis in both the detergent-soluble and detergent-insoluble fractions. […] Finally, STMN2 levels in neurons treated with either a short-term high dose or a long-term low dose of MG-132 were probed.
For analysis of TDP-43 and STMN2 protein expression levels, d10 MNs were lysed in RIPA buffer (150 mM Sodium Chloride; 1% Triton X-100; 0.5% sodium deoxycholate; 0.1% SDS; 50 mM Tris pH 8.0) containing protease and phosphatase inhibitors (Roche) for 20 min on ice, and centrifuged at high speed. 200 μL of RIPA buffer per well of 24-well culture were routinely used, which yielded ˜20 μg of total protein as determined by BCA (Thermo Scientific). After two washes with RIPA buffer, insoluble pellets were resuspended in 200 μl of UREA buffer (Bio-Rad). For immunoblot assays 2-3 μg of total protein were separated by SDS-PAGE (BioRad), transferred to PDVF membranes (BioRad) and probed with antibodies against TDP-43 (1:1000, ProteinTech Group), GAPDH (1:1000, Millipore) and STMN2 (1:3000, Novus). Insoluble pellets were loaded based on protein concentration of correspondent RIPA-soluble counterparts. […] GAPDH levels were used to normalized each sample, and LiCor software was used to quantitate protein band signal.

STMN2 transcript = experiment: qRT-PCR analysis of STMN2 expression in hMNs; assay type: cell-based, human; conditions: either a short-term high dose or a long-term low dose, both cases
Method: Total RNA was isolated from d10 MNs for RNA-Seq experiments and validation assays using Trizol LS (Invitrogen) according to manufacturer's instructions. 500 μL were added per well of the 24-well cultures. A total of 300-1000 ng of total RNA was used to synthesize cDNA by reverse transcription according to the iSCRIPT kit (Bio-rad). Quantitative RT-PCR (qRT-PCR) was then performed using SYBR green (Bio-Rad) and the iCycler system (Bio-rad). Quantitative levels for all genes assayed were normalized using GAPDH expression. […] All primer sequences are available upon request. For next-generation RNA sequencing (RNA-Seq), at least two technical replicas per siRNA sample or AAVS1-TDP43 genotype were included in the analyses. After RNA extraction, samples with RNA integrity numbers (RIN) above 7.5, determined by a bioAnalyzer, were used for library preparation. In brief, RNA sequencing libraries were generated from ˜250 ng of total RNA using the illumina TruSeq RNA kit v2, according to the manufacturer's directions. Libraries were sequenced at the Harvard Bauer Core Sequencing facility on a HiSeq 2000 platform. All FASTQ files were analyzed using the bcbioRNASeq workflow and toolchain (90). The FASTQ files were aligned to the GRCh37/hg19 reference genome. Differential expression testing was performed using DESeq2 suite of bioinformatics tools (38). […]

STMN2 mRNA = STMN2 mRNA expression in HUES3, IG2 and CN7 cell lines stressed with MG132; assay type: cell-based, human
Method: Three cell lines, HUES3, IG2 (Stmn2 KO), and CN7 (cryptic exon deletion) were treated with normal media or media+1 uM MG132 for 24 hours to stress the cells. In HUES3 cells, the stressed condition had 52% STMN2 mRNA expression compared to the unstressed condition. In IG2 (Stmn2 KO) condition, unstressed cells had 13% expression, and when stressed, expression increased to 42%. […] It was shown that if several exons are knocked out the expression goes down, but if the TDP-43 binding site is removed, expression goes way up.

hMNs = experiment: Neurite outgrowth assay (Sholl analysis) of hMNs; assay type: cell-based, human; conditions: STMN2+/+ hMNs, 10 μM
Method: Given the reported role of STMN2 in regulating axonal growth by promoting the dynamic instability of microtubules (77), phenotypic assays were carried out characterizing neurite outgrowth in the STMN2−/− hMNs. After 7 days in culture, sorted hMNs were fixed and stained for β-III-tubulin to label the neuronal processes (FIG. 4E).
Individual Tuj1-positive neurons used for Sholl analyses were randomly selected and imaged using a Nikon Eclipse TE300 with a 40× objective. The neurites were traced using the ImageJ (NIH) plugin NeuronJ (78), and Sholl analysis was performed using the Sholl tool of Fiji (96), quantifying the number of intersections at 10-μm intervals from the cell body. Statistical analysis was performed by comparing the number of intersections of KO clones with the parental WT line for each 10-μm interval using Prism 6 (Graph Pad, La Jolla, CA, USA). Significance was assessed by a standard Student's t-test, with a p value of p<0.05 considered as significant.

STMN2 transcripts = experiment: ASO effect on STMN2 cryptic exon and full length transcripts during TDP-43 depletion; assay type: cell-based

## CC(C)C[C@H](NC(=O)[C@H](Cc1ccccc1)NC(=O)c1cnccn1)B(O)O [Bortezomib]
STMN2 cryptic exon
  transcripts containing the STMN2 cryptic exon (PCR product): presence of transcripts containing the STMN2 cryptic exon

## CC(C)C[C@@H](C=O)NC(=O)[C@H](CC(C)C)NC(=O)[C@H](CC(C)C)NC(=O)OCc1ccccc1 [MG-132] (Cbz-Leu-Leu-Leu-aldehyde)
proteasome; neurons treated with MG-132, N=4 wells (FIG. 14E)
  proteasome activity: significantly decreased proteasome activity
proteasome; overnight 1 μM treatment of hMNs
  proteasome activity: less than 10 % of normal activity
Motor neurons; 1 day of treatment, all concentrations tested (FIG. 14D)
  cell viability (neuronal survival): viable
Motor neurons; overnight 1 μM treatment
  tolerance of neurons to treatment without overt cellular toxicity: could withstand
TDP-43 [1]; 4 days after washout of 24 hour 1 μM pulse
  TDP-43 staining following washout: indistinguishable to unchallenged neurons
TDP-43 [1]; after 24 hour 1 μM pulse
  TDP-43 staining in the nucleus: greatly diminished
TDP-43 [2]; control neurons, low dose, detergent-soluble (RIPA) fraction
  TDP-43 levels in soluble lysates: significantly decreased
TDP-43 [2]; detergent-insoluble fraction
  TDP-43 in UREA (insoluble) fraction: become insoluble
STMN2 transcript
  STMN2 mRNA levels: significant decreases
STMN2 cryptic exon
  transcripts containing the STMN2 cryptic exon (PCR product): presence of transcripts containing the STMN2 cryptic exon
STMN2 mRNA; CN7 (Cryptic Exon Deletion) cells, 1 uM for 24 hours (stressed)
  STMN2 mRNA expression: 473%
STMN2 mRNA; HUES3 cells, 1 uM for 24 hours, compared to the unstressed condition
  STMN2 mRNA expression: 52%
STMN2 mRNA; IG2 (Stmn2 KO) cells, 1 uM for 24 hours (stressed)
  STMN2 mRNA expression: 42%

## C[C@@H](N)[C@H]1CC[C@H](C(=O)Nc2ccncc2)CC1 [Y-27632]
hMNs
  neurite outgrowth: enhancing the outgrowth

## TCTTCAGTATTGCTATTCAT (2'-MOE nucleotides, further chemistry not given here) [ASO (SEQ ID NO: 11), antisense oligonucleotide targeting the abortive or altered STMN2 RNA]
STMN2 transcripts; 2.5 μM (FIG. 69A)
  ability to decrease the abundance of cryptic exon containing transcripts: effectiveness
STMN2 transcripts; 2.5 μM, during TDP-43 depletion (FIG. 69B)
  ability to increase the abundance of full length STMN2 transcripts: effectiveness
